In paper PMC9976286, “Combination of In Silico and In Vitro Screening to Identify Novel Glutamate Carboxypeptidase II Inhibitors” (Journal of Chemical Information and Modeling, 2023):
Values joined by “and” are separate entries in the source; they are usually repeats but may differ in a detail not shown here. Identical values can stand only once. Like-named read-outs stand apart in the source and are kept apart here. Values belong to the molecule of their own block, whether it stands above or below them.

How the values were obtained:
GCPII = conditions: cited from earlier work; for Ki: read-out: Ki[nM] (54 actives, PDB ID)
Recombinant human GCPII [1] = biological target: T1, Recombinant human GCPII (Homo sapiens, UniProt Q04609); assay: In vitro GCPII inhibition assay, fluorescence-based, RP-HPLC readout (screening at 20 μM and IC50); assay type: biochemical; conditions: for IC50: substrate concentration at KM (100 nM Glu-Glu dipeptide labeled with fluorescein)
T1 construct: made in house
T1 sequence (Q04609 whole entry): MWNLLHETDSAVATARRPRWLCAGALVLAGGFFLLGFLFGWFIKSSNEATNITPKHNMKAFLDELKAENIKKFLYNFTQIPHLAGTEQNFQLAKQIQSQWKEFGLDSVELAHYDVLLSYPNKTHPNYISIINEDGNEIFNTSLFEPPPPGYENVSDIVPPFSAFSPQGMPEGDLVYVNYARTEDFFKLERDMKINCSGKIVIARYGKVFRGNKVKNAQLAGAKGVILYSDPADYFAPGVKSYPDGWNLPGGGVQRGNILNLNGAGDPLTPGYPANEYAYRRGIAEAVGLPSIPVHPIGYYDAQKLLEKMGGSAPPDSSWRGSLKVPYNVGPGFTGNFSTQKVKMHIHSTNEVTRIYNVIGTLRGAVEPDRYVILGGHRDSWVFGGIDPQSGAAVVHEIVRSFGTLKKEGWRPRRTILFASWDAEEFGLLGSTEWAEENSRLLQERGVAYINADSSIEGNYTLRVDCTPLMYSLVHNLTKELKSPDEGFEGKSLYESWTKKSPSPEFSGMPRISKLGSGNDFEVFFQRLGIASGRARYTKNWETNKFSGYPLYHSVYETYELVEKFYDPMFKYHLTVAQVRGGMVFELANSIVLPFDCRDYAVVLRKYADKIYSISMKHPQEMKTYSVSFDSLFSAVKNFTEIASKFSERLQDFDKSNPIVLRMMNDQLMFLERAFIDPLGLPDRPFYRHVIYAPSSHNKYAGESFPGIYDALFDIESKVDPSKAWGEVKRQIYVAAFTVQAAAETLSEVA
Experimental: The inhibitory potency of the selected compounds against GCPII was determined using a fluorescence-based assay developed in-house. Recombinant human GCPII purified as described previously[40],[41] (final concentration 0.02 nM) was preincubated with 20 μM test compound for the screening in 50 mM Tris-HCl, 150 mM NaCl, 0.001% C12E8 at 37 °C for 10 min. The reaction was initiated by the addition of 100 nM Glu-Glu dipeptide labeled with fluorescein (substrate)[42] in a total volume of 50 μL. Following 15 min incubation, the reaction was terminated by the addition of 5 μL of 0.1% TFA in 5% acetonitrile. […] The data were fitted using the GraphPad Prism software, and IC50 values were calculated from the inhibition curves of two independent experiments using a nonlinear analysis protocol.

Recombinant human GCPII [2] = biological target: T1, Recombinant human GCPII; assay: GCPII IC50 with substrate concentration 10x above KM (mode of inhibition); assay type: biochemical; conditions: for Increase of GCPII IC50 at 10x KM substrate versus KM: IC50 at 1 μM substrate relative to IC50 at 100 nM substrate; for IC50: substrate concentration 10 times above KM (1 μM)
Experimental: The inhibitory potency of the selected compounds against GCPII was determined using a fluorescence-based assay developed in-house. Recombinant human GCPII purified as described previously[40],[41] (final concentration 0.02 nM) was preincubated with 20 μM test compound for the screening in 50 mM Tris-HCl, 150 mM NaCl, 0.001% C12E8 at 37 °C for 10 min. […] Following 15 min incubation, the reaction was terminated by the addition of 5 μL of 0.1% TFA in 5% acetonitrile. Reaction mixtures were then analyzed by RP-HPLC with a Kinetex 2.6 μm XB-C18 100 Å column with a fluorescence detector set to λEX/λEM = 492/516. The GCPII inhibition in the SPECS hits samples was calculated using the noninhibited reaction as a control. Inhibition constants of the compounds active in the in vitro screening were determined using increasing concentrations of inhibitors. The data were fitted using the GraphPad Prism software, and IC50 values were calculated from the inhibition curves of two independent experiments using a nonlinear analysis protocol.

Recombinant human HDAC10 = biological target: T2, Recombinant human HDAC10 (Homo sapiens, UniProt Q969S8); assay: Inhibitor specificity: fluorescence-based HDAC10 activity assay; assay type: biochemical; conditions: for HDAC10 inhibition (in words): off-target specificity
T2 construct: made in house
T2 sequence (Q969S8 1-669): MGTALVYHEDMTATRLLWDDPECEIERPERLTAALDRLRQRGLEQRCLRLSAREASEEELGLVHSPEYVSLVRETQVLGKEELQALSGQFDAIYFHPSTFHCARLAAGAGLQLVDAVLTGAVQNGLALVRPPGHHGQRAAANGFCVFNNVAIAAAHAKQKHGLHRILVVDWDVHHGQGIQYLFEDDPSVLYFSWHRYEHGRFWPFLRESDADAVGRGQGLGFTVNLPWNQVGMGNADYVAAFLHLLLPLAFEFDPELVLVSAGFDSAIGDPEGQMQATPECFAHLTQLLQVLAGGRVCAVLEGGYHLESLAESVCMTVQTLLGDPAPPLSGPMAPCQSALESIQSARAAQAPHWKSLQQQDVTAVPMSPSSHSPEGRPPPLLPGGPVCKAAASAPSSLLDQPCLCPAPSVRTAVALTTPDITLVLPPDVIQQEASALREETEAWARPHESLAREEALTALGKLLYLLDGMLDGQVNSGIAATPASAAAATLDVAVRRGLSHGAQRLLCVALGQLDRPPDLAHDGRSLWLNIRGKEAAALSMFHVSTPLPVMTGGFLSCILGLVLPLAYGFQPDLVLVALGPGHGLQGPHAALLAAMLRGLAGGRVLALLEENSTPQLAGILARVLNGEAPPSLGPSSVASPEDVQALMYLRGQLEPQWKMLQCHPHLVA
Experimental: The fluorescence-based activity assay used was developed in-house. Recombinant human HDAC10 purified as described previously[43] (0.5 nM) was preincubated with dilution series of compounds in 50 mM 4-(2-hydroxyethyl)-1-piperazineethanesulfonic acid (HEPES), 140 mM NaCl, 10 mM KCl, 2 mg/mL bovine serum albumin (BSA), and 1 mM tris(2-carboxyethyl) phosphine, pH 7.4 at 37 °C for 10 min. The reaction was initiated by the addition of a 10 μM substrate (spermidine labeled with fluorescein, provided by the group of Prof. Mike Schutkowski)[43] in a total volume of 50 μL. Following 30-min incubation, the reaction was terminated by the addition of 5 μL of 0.5% acetic acid and centrifuged at 2000g at room temperature for 15 min to remove precipitated BSA. […] The HDAC10 inhibition was calculated using the noninhibited reaction as a control. Inhibition constants of the compounds were determined using increasing concentrations of inhibitors. The data were fitted using the GraphPad Prism software,[44] and IC50 values were calculated from the inhibition curves of two independent experiments using a nonlinear analysis protocol.

[3] = dataset of 54 GCPII ligands compiled from the PDB
[4] = dataset of 54 GCPII ligands compiled from the PDB, read-out: IC50[nM] (54 actives, PDB ID)
[5] = read-out: GCPII IC50 at substrate concentration 10 times above the KM
[6] = 10 μM fluorescein-labeled spermidine substrate, read-out: HDAC10 IC50

SMILES: O=C(N[C@@H](CCCCNC(=O)c1ccc(I)cc1)C(=O)O)N[C@@H](C[C@H]1CO1)C(=O)O [Compound 4OC1]
Ki (GCPII; [3]): 254 nM

SMILES: C#CC[C@H](NC(=O)N[C@@H](CCCCNC(=O)c1ccc(I)cc1)C(=O)O)C(=O)O [Compound 4OC2]
Ki (GCPII; [3]): 5.3 nM

SMILES: O=C(N[C@@H](CCCCNC(=O)c1ccc(I)cc1)C(=O)O)N[C@@H](Cc1ccco1)C(=O)O [Compound 4OC3]
Ki (GCPII; [3]): 5.3 nM

SMILES: O=C(N[C@@H](CCCCNC(=O)c1ccc(I)cc1)C(=O)O)N[C@@H](Cc1ccncc1)C(=O)O [Compound 4OC4]
Ki (GCPII; [3]): 105 nM

SMILES: O=C(N[C@@H](CCCCNC(=O)c1ccc(I)cc1)C(=O)O)N[C@H](C(=O)O)c1ccc(O)cc1 [Compound 4OC5]
Ki (GCPII; [3]): 85 nM

SMILES: O=C(O)CC[C@H](N[P@](=O)(O)OCCNC(=O)c1ccccc1)C(=O)O [Compound 4P4D]
IC50 (GCPII; [4]): 1800 nM

SMILES: O=C(O)CC[C@H](N[P@](=O)(O)OCCCCc1ccccc1)C(=O)O [Compound 4P4E]
IC50 (GCPII; [4]): 180 nM

SMILES: O=C(O)CC[C@H](N[P@](=O)(O)OCc1ccc(-c2ccccc2)cc1)C(=O)O [Compound 4P4F]
IC50 (GCPII; [4]): 168 nM

SMILES: O=C(O)CC[C@H](N[P@](=O)(O)OC[C@H](NC(=O)c1ccccc1)C(=O)O)C(=O)O [Compound 4P4I]
IC50 (GCPII; [4]): 35 nM

SMILES: O=C(O)CC[C@H](N[P@](=O)(O)OC[C@@H](NC(=O)c1ccccc1)C(=O)O)C(=O)O [Compound 4P4J]
IC50 (GCPII; [4]): 700 nM

SMILES: CC[C@@H](C)[C@H](NC(=O)c1ccc(F)cc1)C(=O)N[C@@H](CO[P@@](=O)(O)N[C@@H](CCC(=O)O)C(=O)O)C(=O)O [Compound 4P44]
IC50 (GCPII; [4]): 16 nM

SMILES: CC(C)[C@H](NC(=O)c1ccc(F)cc1)C(=O)N[C@@H](CO[P@@](=O)(O)N[C@@H](CCC(=O)O)C(=O)O)C(=O)O [Compound 4P45]
IC50 (GCPII; [4]): 16 nM

SMILES: O=C(CC[C@@H](Cc1ccc(C(=O)O)cc1)C(=O)O)NO [Compound 5D29]
IC50 (GCPII; [4]): 97 nM

SMILES: O=C(CC[C@H](Cc1ccc(C(=O)O)cc1)C(=O)O)NO [Compound 5ELY]
IC50 (GCPII; [4]): 44 nM

SMILES: O=C(O)CC[C@H](NC(=O)N[C@@H](CCCC(=O)NCc1ccc(F)cc1)C(=O)O)C(=O)O [Compound 5OF0]
IC50 (GCPII; [4]): 2.32 nM

SMILES: O=C(O)CC[C@H](NC(=O)N[C@@H](CCCC(=O)Nc1ccc(F)cc1)C(=O)O)C(=O)O [Compound 6H7Y]
IC50 (GCPII; [4]): 0.35 nM

SMILES: CN(C(=O)CCC[C@H](NC(=O)N[C@@H](CCC(=O)O)C(=O)O)C(=O)O)c1ccc(F)nc1 [Compound 6H7Z]
IC50 (GCPII; [4]): 0.13 nM

SMILES: O=C(O)CC[C@H](NC(=O)N[C@@H](CCCC(=O)Nc1ccc(F)nc1)C(=O)O)C(=O)O [Compound 6HKJ]
IC50 (GCPII; [4]): 0.99 nM

IC50 (Recombinant human GCPII [1]): 4500 nM and 4510 nM
Increase of GCPII IC50 at 10x KM substrate versus KM (Recombinant human GCPII [2]): approximately twice
IC50 (Recombinant human GCPII [2]; read-out: GCPII IC50 10x > KM): 9390 nM
IC50 (Recombinant human GCPII [2]; [5]): 9400 ± 100 nM
IC50 (Recombinant human HDAC10; [6]): 2210 nM and 2200 nM
SMILES: O=C(O)CSC1=C(SCC(=O)O)C(=O)C(SCC(=O)O)=C(SCC(=O)O)C1=O [Compound 17]

inhibition at 20 µM (Recombinant human GCPII [1]; compound at 20 μM, 100 nM fluorescein-labeled Glu-Glu dipeptide substrate, read-out: Inhibition [%] of GCPII activity): > 50%
IC50 (Recombinant human GCPII [1]): 15000 nM
Increase of GCPII IC50 at 10x KM substrate versus KM (Recombinant human GCPII [2]): approximately twice
IC50 (Recombinant human GCPII [2]; read-out: GCPII IC50 10x > KM): 27600 nM
IC50 (Recombinant human GCPII [2]; [5]): > 20000 nM
IC50 (Recombinant human HDAC10; [6]): > 100000 nM
HDAC10 inhibition (in words) (Recombinant human HDAC10): did not exhibit any HDAC10 inhibition
SMILES: O=[N+]([O-])c1ccc(C(CCc2nnn[nH]2)(CCc2nnn[nH]2)c2nnn[nH]2)cc1 [Compound 18]

IC50 (Recombinant human GCPII [1]): 353 ± 24 nM
Increase of GCPII IC50 at 10x KM substrate versus KM (Recombinant human GCPII [2]): 4 fold
IC50 (Recombinant human GCPII [2]; read-out: GCPII IC50 10x > KM): 1350 nM
IC50 (Recombinant human GCPII [2]; [5]): 1400 ± 100 nM
IC50 (Recombinant human HDAC10; HDAC10 IC50, 10 μM fluorescein-labeled spermidine substrate): > 100000 nM
HDAC10 inhibition (in words) (Recombinant human HDAC10): did not exhibit any HDAC10 inhibition
SMILES: O=C(O)c1ccccc1-c1c2ccc(=O)c(I)c-2oc2c(I)c(OS(=O)(=O)c3ccc(Br)cc3)ccc12 [Compound 46]

SMILES: O=C(O)CC[C@H](NC(=O)N[C@@H](CCCC(=O)N(CCNC(=O)c1ccc(F)nc1)c1ccccc1)C(=O)O)C(=O)O [RNA 2-49-1]
IC50 (GCPII; [4]): 0.075 nM
IC50 (GCPII; read-out: GCPII IC50): 0.08 nM
